One experiment has as its system Chlorella vulgaris. Kind of experiment: Reduction of chlorophyll content in green algae Chlorella vulgaris. To be noted: 168 h, read-out: Chlorella vulgaris IC50 (50% reduction of chlorophyll content), 7-day cultivation. Format: cell-based, Chlorella vulgaris Beij.
For experiment [1], the system named is photosynthetic electron transport (PET) in spinach chloroplasts. Also on record: method as in earlier work. The settings on record: standard DCMU; ref [56]; cited from earlier work.

pIC50: −log10 of the molar value. Where “and” joins values, the source holds several entries; their conditions need not be identical. Identical values can stand only once.

Procedure for Chlorella vulgaris: (photoperiod 16 h light/8 h dark; photosynthetically active radiation (PAR) 80 μmol/m^2s; pH 7.2). The effect of rhodanine compounds on algal chlorophyll (Chl) content was determined after 7-day cultivation in the presence of the compounds tested, expressing the response as percentage of the corresponding values obtained for control. The Chl content in the algal suspension was determined spectrophotometrically (Genesys 6, Thermo Scientific, USA) after extraction into methanol according to Wellburn [58].

As to `CN(C)C(=O)Nc1ccc(Cl)c(Cl)c1` [DCMU, 3-(3,4-dichlorophenyl)-1,1-dimethylurea], the negative-log IC50 (pIC50) – broadly, the IC50 on a negative log10 scale, so that one unit is a factor of ten – in the experiment on Chlorella vulgaris was about 5.14; in experiment [1] it was ~5.72 and 5.72.

(Values after PMC6264177, “Synthesis and Characterization of (Z)-5-Arylmethylidene-rhodanines with Photosynthesis-Inhibiting Properties ^†” (Molecules, 2011).)
